Data from US20240075073A1, “TREATING OPTIC NEURITIS WITH INDUCED PLURIPOTENT STEM CELL-DERIVED OLIGODENDROCYTE PRECURSOR CELLS” (Mayo Foundation for Medical Education and Research, priority 2016, published 2024).
“Also recorded” adds a separate entry of the source.

Legend:
murine optic nerves [1] = settings: mice on diet containing 0.3% cuprizone; cited from earlier work
murine optic nerves [2] = experiment: PPD staining and electron microscopy of optic nerve sections, cuprizone demyelination and remyelination after OPC transplant; format: in vivo, mice
Description: (§1) Cuprizone is a copper chelator, which causes apoptosis of mature oligodendroglia, followed by microglial recruitment, and phagocytosis of myelin. Demyelination was induced by feeding mice a diet containing 0.3% cuprizone for 9 weeks. […] Peak demyelination occurred at 6-7 weeks with spontaneous remyelination occurring 2-4 weeks after transition to regular diet. Efficacy of OPC transplants upon reintroduction of regular diet was evaluated. Assessment of remyelination following transplant was performed as described elsewhere (Deb et al., PLoS One, 5:e12478 (2010)). Briefly, semi-thin sections of optic nerves were stained with para-phenylenediamine, imaged at 100× magnification following a predetermined sampling scheme, and analyzed using automated ImageJ macros to measure myelinated fibers.
For collection of optic nerves and brain tissue, mice were perfused with 4% paraformaldehyde or Trump's fixative, and CNS tissues were post-fixed in the respective solution for 24 hours.
Cuprizone is a copper chelator that causes apoptosis of mature oligodendroglia, followed by microglial recruitment and phagocytosis of myelin. Demyelination was induced by feeding mice a diet containing 0.3% cuprizone for 9 weeks. […] Peak demyelination occurs at 6-7 weeks with spontaneous remyelination occurring 2-4 weeks after transition to regular diet. […] Optical coherence tomography (OCT) provided quantitative assessment of neuroretinal integrity. The retinal layers measured along the green line in FIG. 4E in a healthy mouse (FIG. 4F). Note the clear retinal nerve fiber layer (RNFL), as outlined in FIG. 4H. The retinal layers measured along the yellow line in FIG. 4E in a healthy mouse (FIG. 4G). Note the thick ganglion cell layer (GCL), as outlined in FIG. 4H. Head mount surgery for placement of VEP electrodes and recording locations (FIG. 4I-K). Visual evoked potentials (VEPs) measured in the visual cortex induced by a 0.3 Hz light pulse (FIG. 4L). […] VEP averaging is used to establish measurements of evoked potential amplitude, latency, and pulse width (FIG. 4M). […]

[3] = test system: optic nerve of cuprizone-fed mice; experiment: Visual evoked potentials (VEP) in cuprizone-fed mice with or without OPC transplant; format: in vivo
Description: as §1
Maintaining a sterile field, 1.0 μL of media containing >10^4 OPCs were injected into the vitreous humor of anesthetized mice, using a custom 34-gauge needle mounted on a 5 μL Hamilton syringe. Despite the small dimensions of the murine eye and the high needle gauge, OPCs were consistently and reproducibly delivered into the vitreous cavity with this method, and transferred cells were imaged using fluorescent fundus imaging of the mouse eye (evidence from >30 mice; data not included) (FIG. 6A).
To measure the functional outcomes of OPC transplantation, VEPs were recorded. Intracranial supradural screw electrodes (plastics1.com 8L0X3905201F) were implanted over the visual cortex as described elsewhere (Deb et al., (2010) PLoS One 5:e12478) (FIG. 4I-4K). After dark adaptation, mice were placed in a recording chamber connected to a recording system (8200-K1-SE3, Pinnacle Technology) using an implanted EEG headmount (8235-SM, Pinnacle Tech) tethered to a preamplifier (8202-SE3, Pinnacle Tech) and an analog-to-digital converter. Mice were visually stimulated by an on-axis flashing LED. VEPs were recorded with varying stimulus blocks from 0.1 Hz to 1000 Hz (controlled via a programmable Arduino Diecimila). Recording parameters measured latency to N1 (the first negative peak following stimulation), amplitude range between Nmax-Pmax (first positive peak after stimulation), number of stimuli not followed by a response, duration of visual evoked response, pulse width of Pmax. Any delay in conduction velocity through the optic nerve increased time to N1, whereas axonal degeneration led to decrease in amplitude range, and an increase in response duration as well as increased pulse width due to non-synchronous firing of neurons, providing a very sensitive measure of optic nerve function.
Mice were subjected to electrode implantation surgery and either received OPC transplant or served as controls (FIGS. 7A-C), and visual evoked potential (VEP) averaging was used to establish measurements of evoked potential amplitude, latency, and peak pulse-width (FIG. 7D). Representative waveforms of VEP recordings in a healthy control animal (FIG. 7E), cuprizone-fed animal (FIG. 7F), and cuprizone-fed animal transplanted with OPCs (FIG. 7G). Latency was measured as the time from the visual stimulus to the first negative peak in the VEP impulse (FIG. 7H). An increased latency indicated decreased conduction velocity as a result of loss of myelin and Nodes of Ranvier. […] Peak width was measured as the duration of the first positive impulse at half-maximum amplitude. […]

[4] = 0.3 Hz stimulation frequency, cuprizone-fed animal compared to regular diet (FIG. 4N)

Q: For O=C(NN=C1CCCCC1)C(=O)NN=C1CCCCC1 [cuprizone], which “time of peak demyelination” value (murine optic nerves [1]) is on record?
A: The value was 6-7 weeks.

Q: What about the “optic nerve myelination, PPD staining of semi-thin sections” value (murine optic nerves [2]; after 6 weeks of cuprizone treatment) of the same molecule?
A: The value was “profound demyelination”.

Q: And the “optic nerve myelination, PPD staining of semi-thin sections” value (murine optic nerves [2]; after 9 weeks of cuprizone treatment)?
A: The value was “profound demyelination”.

Q: What about the “myelin layers in electron micrographs of thin optic nerve cross sections” value (murine optic nerves [2]; cuprizone-treated animals, no transplant) of the same molecule?
A: The value was “thinning and disorganization of myelin layers; also recorded: thinning, and disorganization of myelin layers”.

Q: What about the “failure to transmit impulses in VEP recording” value [3, 4] of the same molecule?
A: The value was “increased failure to transmit impulses”.

Q: And the “latency to N1 in VEP recording from visual cortex” value [3, 4]?
A: Its value is “increased latency to N1”.

Q: And the “average latency (time from visual stimulus to first negative peak in the VEP impulse)” value ([3]; after cuprizone treatment for nine weeks, no transplant, healthy baseline 276 ms, n=5)?
A: The value was 371 ms.

Q: And the “peak width, shortest half for peak width values” ([3]; after demyelination with cuprizone, no transplant, n=5)?
A: Its value is “increased”.

Q: And the “number of missed responses” value ([3]; cuprizone-fed animals, no transplant, n=5)?
A: Its value is “greatly increased”.
